# Data as given in US20250057743A1, “Oral Care Compositions Comprising Dicarboxylic Acid” (The Procter & Gamble Company, priority 2020, published 2025).
# What was measured:
# Slurry pH of composition = format: physicochemical; conditions: Table 10, treatments of the enamel softening study (1:3 slurry of toothpaste to water)
# Excerpt: The pH of the oral care compositions as described herein can be from about 4 to about 7, from about 4 to about 6, from about 4.5 to about 6.5, or from about 4.5 to about 5.5. The pH of a mouthrinse solution can be determined as the pH of the neat solution. The pH of a dentifrice composition can be determined as a slurry pH, which is the pH of a mixture of the dentifrice composition and water, such as a 1:4, 1:3, or 1:2 mixture of the dentifrice composition and water.
# [1] = human, 1 %
# Description: The enamel softening method is used to determine the potential of oral care compositions to damage (or not to damage) dental enamel with repeated exposure.
# A core of sound human enamel with a diameter of 3-4 mm was extracted from whole human teeth. The cores were mounted in dental acrylic and the surfaces were ground using 600 grit paper. Increasingly fine lapping papers were then used to polish the surface to a 1 um polish. Samples were sonicated in deionized water for 30 min. Enamel specimens were then rinsed with deionized water and wiped to remove any residual polish. Each enamel specimen was inspected and samples with large cracks or uneven calcification were discarded. […]
# Also on the day before the experiment, the Vickers hardness of each enamel specimen was measured using a hardness indenter at three separate locations spread across the enamel surface. A 50g load was applied for 10 seconds, and the diagonal lengths of the resulting indents were measured using a 20× magnification objective. […]
# On the day following the cycling experiment, the post-cycling hardness was obtained for each specimen using a similar procedure to that described for the pre-cycling hardness measurements. The change in hardness was calculated for each specimen by subtracting the pre-cycling hardness from the post-cycling hardness measurement. […]
structure (smiles),measurement,setting,value
"O=C(O)CC(O)(CC(=O)O)C(=O)O [1% Citric Acid, citric acid]",Slurry pH,Slurry pH of composition,2.19
same,Δ SMH (change in surface microhardness),[1],175.68
